Assay results: US20230172204A1 (BASF SE, priority 2020, published 2023)

Tests used:
[1] = tested on: Phakopsora pachyrhizi (F129L); assay: Protective control of soybean rust on soybeans (PHAKPA P6); assay type: in vivo; conditions: soybean rust F129L; for % PHAKPA (F129L) Disease level P6 at 4 ppm: protective P6, 4 ppm; for % PHAKPA (F129L) Disease level P6 at 16 ppm: protective P6, 16 ppm
[2] = tested on: Phakopsora pachyrhizi (F129L); assay: Protective control of soybean rust on soybeans (PHAKPA P2); assay type: in vivo; conditions: soybean rust F129L; for % PHAKPA (F129L) Disease level P2 at 4 ppm: protective P2, 4 ppm; for % PHAKPA (F129L) Disease level P2 at 16 ppm: protective P2, 16 ppm

| SMILES | % PHAKPA (F129L) Disease level P6 at 4 ppm [1] [%] | % PHAKPA (F129L) Disease level P6 at 16 ppm [1] [%] | % PHAKPA (F129L) Disease level P2 at 4 ppm [2] [%] | % PHAKPA (F129L) Disease level P2 at 16 ppm [2] [%] |
| --- | --- | --- | --- | --- |
| CNC(=O)/C(=N/OC)c1cccc(C)c1CO/N=C(\C)c1c(F)cccc1C(F)(F)F [compound 345] | 32 | 1 | 22 | 1 |
| CNC(=O)/C(=N/OC)c1cccc(C)c1CO/N=C(\C)c1c(F)ccc(F)c1OC(F)(F)F [compound 346] | 5 | 0 | 4 | 0 |
| CNC(=O)/C(=N/OC)c1cccc(C)c1CO/N=C(\C)c1ccc(OC(F)(F)F)cc1OC(F)(F)F [compound 349] | 97 | 35 | 97 | 50 |
| CNC(=O)/C(=N/OC)c1cccc(C)c1CO/N=C(\C)c1cccc(F)c1OC(F)(F)F [compound 354] | 21 | 4 | 17 | 2 |
| CNC(=O)/C(=N/OC)c1cccc(C)c1CO/N=C(\C)c1c(F)cc(Br)cc1OC(F)(F)F [compound 355] | 48 | 4 | 34 | 7 |
| CNC(=O)/C(=N/OC)c1cccc(C)c1CO/N=C(\C)c1c(F)cc(F)cc1C(F)(F)F [compound 357] | 18 | 0 | 13 | 1 |
| CNC(=O)/C(=N/OC)c1cccc(C)c1CO/N=C(\C)c1c(F)cc(Br)cc1C(F)(F)F [compound 358] | 83 | 18 | 77 | 17 |
| CNC(=O)/C(=N/OC)c1cccc(C)c1CO/N=C(\C)c1c(F)ccc(F)c1C(F)(F)F [compound 359] | 100 | 43 | 100 | 37 |
| CO/N=C(/C(=O)OC)c1cccc(C)c1CO/N=C(\C)c1c(F)cc(F)cc1C(F)(F)F [compound 360] | 80 | 5 | 53 | 9 |
| CO/N=C(/C(=O)OC)c1cccc(C)c1CO/N=C(\C)c1c(F)cc(F)cc1OC(F)(F)F [compound 361] | 88 | 31 | 80 | 18 |
| CNC(=O)/C(=N/OC)c1cccc(C)c1CO/N=C(\C)c1ccc(OC(F)(F)F)cc1C(F)(F)F [compound 363] | 25 | 2 | 29 | 1 |
| CO/N=C(/C(=O)OC)c1cccc(C)c1CO/N=C(\C)c1c(F)cccc1C(F)(F)F [compound 365] | 97 | 43 | 77 | 15 |
| CO/N=C(/C(=O)OC)c1cccc(C)c1CO/N=C(\C)c1c(F)ccc(F)c1OC(F)(F)F [compound 366] | 83 | 12 | 53 | 13 |
| CO/N=C(/C(=O)OC)c1cccc(C)c1CO/N=C(\C)c1c(F)cc(Br)cc1C(F)(F)F [compound 368] | 90 | 73 | 83 | 47 |
| CNC(=O)/C(=N/OC)c1cccc(C)c1CO/N=C(\C)c1ccccc1C(C)(F)F [compound 372] | 85 | 16 | 85 | 26 |
| CO/N=C(/C(=O)OC)c1cccc(C)c1CO/N=C(\C)c1ccc(OC)cc1OC(F)(F)F [compound 373] | 100 | 38 | 77 | 27 |
| CNC(=O)/C(=N/OC)c1cccc(C)c1CO/N=C(\C)c1ccc(Cl)cc1OC(F)(F)F [compound 375] | 40 | 6 | 47 | 8 |
| CNC(=O)/C(=N/OC)c1cccc(C)c1CO/N=C(\C)c1ccc(F)cc1OC(F)(F)F [compound 378] | 17 | 1 | 18 | 1 |
